A value given as a limit tells only on which side of the number the result lay.

Consider six molecules from PMC4400266 (ACS chemical neuroscience, 2015).

The target of one assay is T1, human OX1 receptors (Homo sapiens, UniProt O43613).
T1 sequence (O43613 1-425): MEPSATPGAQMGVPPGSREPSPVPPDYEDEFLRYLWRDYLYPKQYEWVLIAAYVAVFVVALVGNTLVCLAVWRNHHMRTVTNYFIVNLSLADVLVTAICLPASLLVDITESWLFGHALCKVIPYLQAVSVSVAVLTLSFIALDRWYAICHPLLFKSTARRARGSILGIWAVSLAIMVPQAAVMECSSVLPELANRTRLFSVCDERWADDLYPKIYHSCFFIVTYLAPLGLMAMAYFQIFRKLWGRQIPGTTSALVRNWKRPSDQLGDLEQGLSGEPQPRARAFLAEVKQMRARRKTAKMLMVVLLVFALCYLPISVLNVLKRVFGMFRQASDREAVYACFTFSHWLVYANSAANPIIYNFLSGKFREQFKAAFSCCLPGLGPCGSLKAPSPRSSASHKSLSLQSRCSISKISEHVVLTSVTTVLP
Nature of the assay: Calcium mobilization Ke assay. In kind it is cell-based. Particulars: for OX2/OX1: ratio of Ke OX2 to Ke OX1 (table column).

In the next assay the target is T2, human OX2 receptors (Homo sapiens, UniProt O43614).
T2 sequence (O43614 1-444): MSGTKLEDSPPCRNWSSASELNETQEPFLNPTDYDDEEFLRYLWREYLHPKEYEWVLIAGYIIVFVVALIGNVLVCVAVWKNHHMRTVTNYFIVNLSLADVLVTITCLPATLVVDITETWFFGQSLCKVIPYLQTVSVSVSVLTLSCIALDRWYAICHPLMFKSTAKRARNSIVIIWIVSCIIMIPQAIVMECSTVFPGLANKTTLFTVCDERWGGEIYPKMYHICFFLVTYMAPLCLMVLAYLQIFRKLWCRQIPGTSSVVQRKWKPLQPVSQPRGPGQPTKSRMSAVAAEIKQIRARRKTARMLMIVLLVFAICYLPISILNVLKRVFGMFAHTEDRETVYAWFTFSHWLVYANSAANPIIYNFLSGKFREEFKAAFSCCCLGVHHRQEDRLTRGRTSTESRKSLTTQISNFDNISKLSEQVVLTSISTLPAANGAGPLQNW
As to the kind of experiment: Calcium mobilization Ke assay. Type of assay: cell-based.

A further assay concerns Sprague-Dawley rats. As to the kind of experiment: Locomotor activity and acute cocaine-induced hyperactivity. In kind it is in vivo, rat. Particulars: 10 mg/kg alone, i.p. (data not shown).
In a further assay the test system is OX1. Particulars: cited from earlier work.
For assay [1] the following is noted: administrated i.p.; cited from earlier work.

As to `COc1cc2c(cc1OC)C(Cc1ccc(N(C)C)cc1)N(CC(=O)NCc1ccccc1)CC2` (stereo not drawn) [Compound 48, N-Benzyl-2-(1-{[4-(dimethylamino)phenyl]methyl}-6,7-dimethoxy-1,2,3,4-tetrahydroisoquinolin-2-yl)acetamide], at human OX1 receptors, the OX2/OX1 is reported as above 40. Also, the Kb on human OX2 receptors was above 10 µM.
The corresponding values for `COc1cc2c(cc1OC)C(Cc1ccc(C(C)C)cc1)N(CC(=O)NCc1ccccc1)CC2` (stereo not drawn) [Compound 51, N-Benzyl-2-(6,7-dimethoxy-1-{[4-(propan-2-yl)phenyl]methyl}-1,2,3,4-tetrahydroisoquinolin-2-yl)acetamide] are above 118 and above 10 µM.
`COc1cc2c(cc1OC)C(Cc1ccc3ccccc3c1)N(CC(=O)NCc1ccccc1)CC2` (stereo not drawn) [Compound 54, N-Benzyl-2-[6,7-dimethoxy-1-(naphthalen-2-ylmethyl)-1,2,3,4-tetrahydroisoquinolin-2-yl]acetamide]: the OX2/OX1 on human OX1 receptors turned out to be 6.6. In addition, at human OX2 receptors, the Kb is 1.62 ± 0.23 µM.
Turning to `COc1cc2c(cc1OC)C(Cc1ccc3ncccc3c1)N(CC(=O)NCc1ccccc1)CC2` (stereo not drawn) [Compound 55, N-Benzyl-2-[6,7-dimethoxy-1-(quinolin-6-ylmethyl)-1,2,3,4-tetrahydroisoquinolin-2-yl]acetamide], the OX2/OX1 at human OX1 receptors is on record as above 23. On human OX2 receptors, the Kb was above 10 µM.
In the case of `CCCOc1ccc(CC2c3cc(OCCC)c(OC)cc3CCN2CC(=O)NCc2ccccc2)cc1OC` (stereo not drawn) [Compound 73, N-Benzyl-2-{6-methoxy-1-[(3-methoxy-4-propoxyphenyl)methyl]-7-propoxy-1,2,3,4-tetrahydroisoquinolin-2-yl}acetamide], the “OX1 selectivity over the OX2 receptor” value at human OX1 receptors was above 620 fold. The spontaneous activity result with Sprague-Dawley rats is “did not significantly alter the spontaneous activity”.
For `Cc1nc2ccc(NC(=O)Nc3ccnc4cccnc34)cc2o1` [SB-334867], the “affinity for OX1 higher than for OX2” value in the assay on OX1 is listed as ~ 50 fold. Besides, the “development of locomotor sensitization to cocaine” value in assay [1] is “block the development of locomotor sensitization to cocaine”.
